Results from the supplement of paper PMC5908809.

Key:
[1] = test system: normal NK cells expanded with K562-aAPC; assay: percent inhibition of viability; higher = more inhibition; conditions: 72 h, IL-2 2.5 ng/mL
Method: (§1)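 Drug sensitivity and resistance testing on K562-aAPC-expanded normal NK cells: 5 concentrations (10-fold steps over a 10,000-fold range), 72 h at 37 °C, viability by CellTiter-Glo normalised to DMSO and benzethonium chloride controls; DSS from the fitted curve.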

DERL-7 (IL-2 2.5 ng/mL) [2] = assay: as above; conditions: 72 h
IMC-1 (IL-2 20 ng/mL) [3] = assay: as above; conditions: 72 h
KAI3 (IL-2 2.5 ng/mL) [4] = assay: as above; conditions: 72 h
KHYG-1 (IL-2 2.5 ng/mL) [5] = assay: as above; conditions: 72 h
NK-92 (IL-2 2.5 ng/mL) [6] = assay: as above; conditions: 72 h
NK-YS (IL-2 2.5 ng/mL) [7] = assay: as above; conditions: 72 h
NKL (IL-2 2.5 ng/mL) [8] = assay: as above; conditions: 72 h
SNK-6 (IL-2 2.5 ng/mL) [9] = assay: as above; conditions: 72 h
YT (IL-2 2.5 ng/mL) [10] = assay: as above; conditions: 72 h
[11] = test system: normal primary NK cells, pool 1 (3 donors) (IL-2 2.5 ng/mL); assay: as above; conditions: 72 h
[12] = test system: normal primary NK cells, pool 1 (3 donors), resting (IL-2 0 ng/mL); assay: as above; conditions: 72 h
[13] = test system: normal primary NK cells, pool 2 (3 donors) (IL-2 2.5 ng/mL); assay: as above; conditions: 72 h
[14] = test system: normal primary NK cells, pool 3 (3 donors) (IL-2 2.5 ng/mL); assay: as above; conditions: 72 h
[15] = test system: normal NK cells expanded with K562-aAPC; assay: drug sensitivity score (DSS) (DSS units); higher = more sensitive; extreme values may be limits of the assay; conditions: 72 h; IL-2 2.5 ng/mL
Method: as §1

DERL-7 (IL-2 2.5 ng/mL) [16] = assay: as above; conditions: 72 h
IMC-1 (IL-2 20 ng/mL) [17] = assay: as above; conditions: 72 h
KAI3 (IL-2 2.5 ng/mL) [18] = assay: as above; conditions: 72 h
KHYG-1 (IL-2 2.5 ng/mL) [19] = assay: as above; conditions: 72 h
NK-92 (IL-2 2.5 ng/mL) [20] = assay: as above; conditions: 72 h
NK-YS (IL-2 2.5 ng/mL) [21] = assay: as above; conditions: 72 h
NKL (IL-2 2.5 ng/mL) [22] = assay: as above; conditions: 72 h
SNK-6 (IL-2 2.5 ng/mL) [23] = assay: as above; conditions: 72 h
YT (IL-2 2.5 ng/mL) [24] = assay: as above; conditions: 72 h
[25] = test system: normal primary NK cells, pool 1 (3 donors) (IL-2 2.5 ng/mL); assay: as above; conditions: 72 h
[26] = test system: normal primary NK cells, pool 1 (3 donors), resting (IL-2 0 ng/mL); assay: as above; conditions: 72 h
[27] = test system: normal primary NK cells, pool 2 (3 donors) (IL-2 2.5 ng/mL); assay: as above; conditions: 72 h
[28] = test system: normal primary NK cells, pool 3 (3 donors) (IL-2 2.5 ng/mL); assay: as above; conditions: 72 h

CN1CCc2c(c3ccccc3n2Cc2ccc(C(=O)NO)cc2)C1 [Tubastatin A] (max concentration tested 10000 nM)
percent inhibition of viability [%]
Conditions	1 nM	10 nM	100 nM	1000 nM	10000 nM
DERL-7 (IL-2 2.5 ng/mL) [2]	-3.55	1.06	-2.9	-2.52	60
IMC-1 (IL-2 20 ng/mL) [3]	-3.32	-4.63	-0.4	-1.55	84.5
KAI3 (IL-2 2.5 ng/mL) [4]	2.16	-0.84	7.18	38.8	90.5
KHYG-1 (IL-2 2.5 ng/mL) [5]	-2.63	-7.38	-2.24	5.2	68.8
NK-92 (IL-2 2.5 ng/mL) [6]	-3.57	-14.2	-5.66	22.2	92.4
NK-YS (IL-2 2.5 ng/mL) [7]	-4.34	-5.38	-3.76	9.99	54.1
NKL (IL-2 2.5 ng/mL) [8]	-6.98	-8.33	6.76	35.4	74.1
SNK-6 (IL-2 2.5 ng/mL) [9]	8.54	0.91	4.89	18.5	57
YT (IL-2 2.5 ng/mL) [10]	-0.87	-2.95	-0.96	6.63	72.9
[1]	-5.45	-1.84	-1.29	9.86	53.5
[11]	7.05	12.2	16.9	13	63.5
[12]	8.81	19.6	12	26.2	81.9
[13]	-2.86	0.66	3.2	7.48	46.4
[14]	-0.16	11.4	-0.85	-0.8	29.6

Conditions	drug sensitivity score
DERL-7 (IL-2 2.5 ng/mL) [16]	3.03
IMC-1 (IL-2 20 ng/mL) [17]	4.57
KAI3 (IL-2 2.5 ng/mL) [18]	9.51
KHYG-1 (IL-2 2.5 ng/mL) [19]	4.58
NK-92 (IL-2 2.5 ng/mL) [20]	8.57
NK-YS (IL-2 2.5 ng/mL) [21]	4.55
NKL (IL-2 2.5 ng/mL) [22]	8.2
SNK-6 (IL-2 2.5 ng/mL) [23]	5.42
YT (IL-2 2.5 ng/mL) [24]	5.09
[15]	4.5
[25]	5.39
[26]	7.58
[27]	3.66
[28]	1.21
